The values that follow come from US9539298B2, “Lissencephaly therapeutic agent” (OSAKA CITY UNIVERSITY, priority 2010, dated 2017).

The structures appear in SMILES notation.

The subject of series [1] is nerve cells from cerebellums of FVB mice. Briefly: Analysis of toxicity of calpain inhibitors on cultured cerebellar nerve cells. It counts as cell-based, mouse. On the procedure: The cerebellums were removed from 4- to 5-day-old FVB mice (15 mice). In a Ca^2+-free Hank's Balanced Salt Solution (CF-HBSS; Ca^2+, Mg^2+-free Hank's Balanced Salt Solution (CMF-HBBS, Sigma) containing 5 mM magnesium chloride (MgCl2, Wako) and 4 mg/mL glucose (Wako)), the meninges were removed and cut into pieces. After the cerebellum fragments were washed with CF-HBSS, the fragments were allowed to stand for 20 minutes at 37° C. in CF-HBSS containing 0.025% trypsin (Invitrogen) and 6.25 μg/mL deoxyribonuclease (DNase, Sigma), and then centrifuged. The resulting tissues were washed with 10% HS/BME (DNase Medium; obtained by adding 5 mM MgCl2 and 25 μg/mL DNase to Basal Medium Eagle (BME, Invitrogen) containing 10% Horse Serum (HS, Invitrogen)) and centrifuged. DNase medium was added to the cells, and the cells were transferred to a 24-well plate (Nunc). The cells were kept still for 30 minutes at 37′C under an atmospheric environment of 5% CO2, thereby suspending the cells. The cell suspension was isolated, and then washed with 10% HS/BME. The suspension was transferred again to a 24-well plate to be cultured for 16 hours at 37° C. under an atmospheric environment of 5% CO2. The cells were collected to BME containing 1% Bovine Serum Albumin (BSA, Sigma) and 0.5% N2 supplement (Invitrogen), and the cell suspension was seeded on a 35 mm glass base dish (Iwaki) coated beforehand with poly-L-lysine (Sigma) and laminin (Sigma) in an amount of […]. The cells were cultured for 8 hours at 37° C. under an atmospheric environment of 5% CO2. The cultured nerve cells were used as test nerve cells.
A culture solution (10% HS/BME) containing SNJ-1945, E64d, or ALLN was prepared in the following manner. SNJ-1945 dissolved in dimethyl sulfoxide (Sigma, D-5879) was mixed with a culture solution so that the final concentration became 200 μM, and was kept still for an hour at 37° C., thereby completely dissolving SNJ-1945 in the culture medium. ALLN and E64d were also dissolved in culture media in the same manner, except that ALLN and E64d were added to the culture media to final concentrations of 50 μM and 100 μM, respectively. The culture media in which the components were dissolved were added to the test nerve cells prepared above in an amount of 2 ml/well, and the cells were cultured for 16 hours. As a control, the same culture was conducted using a culture medium containing the same amount of dimethyl sulfoxide (Sigma, D-5879). After culture, the cells were observed using an inverted microscope (TCS FP5S, Leica). A 20× objective lens was used. Images were taken using dedicated software (LAS AF, Leica) under the condition of 512×512 pixels.

Series [2] deals with fibroblasts derived from human lissencephaly patient (Lis1 +/−). The series is described as follows: Protein quantitative analysis (western blotting) in human fibroblasts. It is filed as cell-based. The conditions noted are these: final SNJ-1945 concentration=200μ, 2-hour culture, FIGS. 21 and 22. Here is the method: In a clean bench, the cells were placed in a 6-well plate in an amount of 3×10^5 cells per well and cultured for 16 hours, thereby adhering the cells to each well. The culture medium in the well was discarded, and the SNJ-1945-containing culture solution (the culture solution containing SNJ-1945-dissolved in Dimethyl Sulfoxide (Sigma, D-5879); final SNJ-1945 concentration=200μ) was added in an amount of 2 ml/well, and a 2-hour culture was performed. As a control, another culture was performed using a culture medium containing the same amount of Dimethyl Sulfoxide (Sigma, D-5879).
After 2-hour culture by adding SNJ-1945, the cells were washed twice with PBS (−), 500 μl of PBS (−), was added and the cells were scraped with a cell scraper. The scraped cells were collected to a 1.5 ml tube to be subjected to centrifugation for 5 minutes at 4° C. and 15000 rpm; the supernatant was discarded, and a cell precipitate was obtained. […]
The absorbency of the cell extract was measured, and the protein amount of the entire solution was determined. […] The absorbency at 595 nm was measured using an ARVO Sx (PerkinElmer) 96-well plate reader, and the entire protein amount was determined.
Then, SDS-PAGE was conducted. […] Based on the protein amount determined by the Bradford method, the cells were loaded to each well of the gel in an amount of 10 μg/well. […]
(A western blot detects proteins with antibodies after separation by electrophoresis.)

Consider `COCCOCCOC(=O)N[C@@H](CC(C)C)C(=O)N[C@@H](Cc1ccccc1)C(=O)C(=O)NC1CC1` [compound 17, ((1S)-1-((((1S)-1-Benzyl-2,3-dioxo-3-(cyclopropylamino)propyl)amino)carbonyl)-3-methylbutyl)carbamic acid 5-methoxy-3-oxapentyl ester], for which the “neurite elongation and cell migration (cytotoxicity)” value in series [1] (200 μM, 16 hours, FIG. 24) is “normal neurite elongation and cell migration were also observed, and no significant difference from the control was observed”. The cell toxicity entry in series [1] (compared with other calpain inhibitors) was “did not show any cell toxicity even in a high concentration”. Besides, in series [2], the “LIS1 amount (western blotting)” value was “recovered nearly to the extent of the LIS1 level” and the “amount of cytoplasmatic dynein intermediate chain (western blotting)” value is recorded as “also increased”.
